Test results: ChEMBL document CHEMBL5375959 (J Med Chem, 2023)
Active and inactive are the calls of the source. No cut-off for these calls is given here.

What was measured:
[1] = Permeability of the compound measured after 24 hrs by PAMPA; format: ADME; conditions: read-out: permeability
Ryanodine receptor 2 [2] = biological target: T1, Ryanodine receptor 2 (Homo sapiens, UniProt Q92736); test: Modulator activity at wild type RyR2 (unknown origin) expressed in HEK293T co-expressed with R-CEPIA1er assessed as decrease in RyR2-mediated calcium leak in presence of calcium chloride by time-lapse fluorescence analysis; format: cell-based
[3] = biological target: Sarcoplasmic/endoplasmic reticulum calcium ATPase 2 (Mus musculus) (UniProt O55143); test: (§1) Activation of SERCA2a in mouse HL-1 cells assessed as increase in caffeine-induced calcium release incubated for 2 hrs by FLIPR Calcium 6 dye based caffeine assay; format: cell-based
Sarcoplasmic/endoplasmic reticulum calcium ATPase 2 (Mus musculus), sequence (O55143 whole entry): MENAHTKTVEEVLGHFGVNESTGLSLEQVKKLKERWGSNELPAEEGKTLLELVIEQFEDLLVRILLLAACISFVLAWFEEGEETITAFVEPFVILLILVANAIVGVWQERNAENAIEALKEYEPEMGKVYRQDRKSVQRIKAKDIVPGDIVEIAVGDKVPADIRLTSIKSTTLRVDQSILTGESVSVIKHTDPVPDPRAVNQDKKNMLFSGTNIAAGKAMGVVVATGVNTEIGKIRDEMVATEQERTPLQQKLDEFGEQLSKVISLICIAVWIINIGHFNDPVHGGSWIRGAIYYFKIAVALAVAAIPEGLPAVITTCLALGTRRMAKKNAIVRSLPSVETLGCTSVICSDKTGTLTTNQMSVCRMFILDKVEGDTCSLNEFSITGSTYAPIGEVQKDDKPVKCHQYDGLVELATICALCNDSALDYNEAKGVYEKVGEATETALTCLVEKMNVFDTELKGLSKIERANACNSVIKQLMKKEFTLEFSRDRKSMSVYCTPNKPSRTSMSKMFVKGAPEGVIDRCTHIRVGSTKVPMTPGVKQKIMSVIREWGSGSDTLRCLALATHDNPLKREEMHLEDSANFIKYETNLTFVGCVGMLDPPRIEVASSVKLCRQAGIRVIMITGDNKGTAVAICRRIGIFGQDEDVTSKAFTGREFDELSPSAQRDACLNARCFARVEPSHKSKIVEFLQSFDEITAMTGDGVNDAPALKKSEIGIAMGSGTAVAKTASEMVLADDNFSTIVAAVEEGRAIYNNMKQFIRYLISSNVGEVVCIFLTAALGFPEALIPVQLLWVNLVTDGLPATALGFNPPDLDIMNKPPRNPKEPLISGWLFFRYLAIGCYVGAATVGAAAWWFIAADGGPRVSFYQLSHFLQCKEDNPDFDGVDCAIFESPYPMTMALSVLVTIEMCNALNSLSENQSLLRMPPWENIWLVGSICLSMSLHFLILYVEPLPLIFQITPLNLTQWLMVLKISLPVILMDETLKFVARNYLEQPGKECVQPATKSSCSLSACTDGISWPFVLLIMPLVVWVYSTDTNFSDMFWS

[4] = biological target: Sarcoplasmic/endoplasmic reticulum calcium ATPase 2 (Mus musculus, UniProt O55143); test: as §1; format: cell-based
Sarcoplasmic/endoplasmic reticulum calcium ATPase 2, sequence (O55143 whole entry): as above

[5] = biological target: Sarcoplasmic/endoplasmic reticulum calcium ATPase 2 (Homo sapiens) (UniProt P16615); test: Activation of SERCA2a in human HEK293T cells endoplasmic reticulum assessed as increase in […] measured for 10 mins in presence of ATP by NADH fluorescence-coupled ATPase assay; format: subcellular
Sarcoplasmic/endoplasmic reticulum calcium ATPase 2 (Homo sapiens), sequence (P16615 whole entry): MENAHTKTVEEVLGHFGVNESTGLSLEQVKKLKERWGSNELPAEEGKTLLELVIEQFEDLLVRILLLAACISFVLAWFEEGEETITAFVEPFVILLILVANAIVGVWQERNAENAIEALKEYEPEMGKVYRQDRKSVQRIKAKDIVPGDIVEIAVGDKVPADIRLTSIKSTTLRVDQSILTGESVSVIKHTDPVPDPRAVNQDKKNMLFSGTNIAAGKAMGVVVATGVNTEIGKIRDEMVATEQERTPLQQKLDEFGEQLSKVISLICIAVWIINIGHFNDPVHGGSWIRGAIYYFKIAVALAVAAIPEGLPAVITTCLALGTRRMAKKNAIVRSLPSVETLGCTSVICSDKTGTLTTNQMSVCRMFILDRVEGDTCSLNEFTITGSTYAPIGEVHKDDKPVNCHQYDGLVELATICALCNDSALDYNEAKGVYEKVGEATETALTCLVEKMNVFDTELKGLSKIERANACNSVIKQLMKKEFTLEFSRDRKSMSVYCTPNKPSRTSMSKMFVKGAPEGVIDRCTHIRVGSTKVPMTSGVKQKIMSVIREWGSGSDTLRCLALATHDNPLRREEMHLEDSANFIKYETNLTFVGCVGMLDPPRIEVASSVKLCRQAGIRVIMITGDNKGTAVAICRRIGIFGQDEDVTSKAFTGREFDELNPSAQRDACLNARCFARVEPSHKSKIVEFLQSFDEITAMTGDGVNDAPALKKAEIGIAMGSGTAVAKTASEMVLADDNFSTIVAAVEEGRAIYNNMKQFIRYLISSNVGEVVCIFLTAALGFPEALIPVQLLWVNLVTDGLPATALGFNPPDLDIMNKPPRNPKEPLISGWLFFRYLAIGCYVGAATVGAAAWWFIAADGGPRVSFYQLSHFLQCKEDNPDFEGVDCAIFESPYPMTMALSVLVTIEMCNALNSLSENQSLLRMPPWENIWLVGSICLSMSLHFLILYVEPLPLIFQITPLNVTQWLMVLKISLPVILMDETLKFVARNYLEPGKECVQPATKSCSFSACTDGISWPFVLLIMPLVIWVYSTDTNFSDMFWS

[6] = biological target: Sarcoplasmic/endoplasmic reticulum calcium ATPase 2 (Mus musculus) (UniProt O55143); test: Activation of SERCA2a in C57BL/6N mouse sarcoplasmic reticulum assessed as increase in […] measured for 10 mins in presence of ATP by NADH fluorescence-coupled ATPase assay; format: subcellular; conditions: filed as activator
Ryanodine receptor 2 [7] = biological target: T1, Ryanodine receptor 2; test: Modulator activity at wild type RyR2 (unknown origin) expressed in HEK293T co-expressed with R-CEPIA1er assessed as decrease in RyR2-mediated calcium leak at 25 uM in presence of calcium chloride by time-lapse fluorescence analysis; format: cell-based; conditions: filed as modulator
[8] = biological target: Sarcoplasmic/endoplasmic reticulum calcium ATPase 2 (Mus musculus) (UniProt O55143); test: Activation of SERCA2a in mouse HL-1 cells assessed as increase in caffeine-induced calcium release at 3 uM incubated for 2 hrs by FLIPR Calcium 6 dye based caffeine assay relative to control; format: cell-based; conditions: filed as activator
[9] = biological target: Sarcoplasmic/endoplasmic reticulum calcium ATPase 2 (Mus musculus) (UniProt O55143); test: Activation of SERCA2a in mouse HL-1 cells assessed as increase in caffeine-induced calcium release at 10 uM incubated for 2 hrs by FLIPR Calcium 6 dye based caffeine assay relative to control; format: cell-based; conditions: filed as activator
[10] = biological target: Sarcoplasmic/endoplasmic reticulum calcium ATPase 2 (Mus musculus) (UniProt O55143); test: Activation of SERCA2a in mouse HL-1 cells assessed as increase in caffeine-induced calcium release at 25 uM incubated for 2 hrs by FLIPR Calcium 6 dye based caffeine assay; format: cell-based
[11] = biological target: Sarcoplasmic/endoplasmic reticulum calcium ATPase 2 (Mus musculus) (UniProt O55143); test: Activation of SERCA2a in mouse HL-1 cells assessed as increase in caffeine-induced calcium release at 50 uM incubated for 2 hrs by FLIPR Calcium 6 dye based caffeine assay; format: cell-based
[12] = biological target: Sarcoplasmic/endoplasmic reticulum calcium ATPase 2 (Mus musculus) (UniProt O55143); test: Activation of SERCA2a in mouse HL-1 cells assessed as increase in caffeine-induced calcium release at 0.1 to 50 uM incubated for 2 hrs by FLIPR Calcium 6 dye based caffeine assay; format: cell-based; conditions: dose 0.1-50 µM
[13] = biological target: Sarcoplasmic/endoplasmic reticulum calcium ATPase 2 (Mus musculus) (UniProt O55143); test: Activation of SERCA2a in mouse HL-1 cells assessed as increase in caffeine-induced calcium release at 10 uM incubated for 2 hrs by FLIPR Calcium 6 dye based caffeine assay; format: cell-based
Ryanodine receptor 2 [14] = biological target: T1, Ryanodine receptor 2; test: Modulator activity at wild type RyR2 (unknown origin) expressed in HEK293T co-expressed with R-CEPIA1er assessed as decrease in RyR2-mediated calcium leak at 1 mM in presence of calcium chloride by time-lapse fluorescence analysis; format: cell-based; conditions: filed as modulator

Structure (SMILES): COc1ccc2c(c1)CN(Cc1ccc(C(=O)O)cc1)CCS2 [SURLORIAN]
- Papp at 24 h [1]: 6.8 ×10⁻⁶ cm/s
- Activity (Ryanodine receptor 2 [2]; filed as modulator): Active
- Activity ([3]; filed as activator): Dose-Dependent Effect
- EC50 [4]: 34.3 µM
- Activity ([5]; filed as activator): Active
- Activity [6]: Active

Structure (SMILES): COc1ccc(OCCCNCCCCC2(O)CC2)cc1
- Papp at 24 h [1]: 4 ×10⁻⁶ cm/s
- Activity [5]: inactive
- Activity [6]: Active

Structure (SMILES): COc1ccc2c(c1)CN(CCCCN(CCCCC1(O)CC1)CCCCC1(O)CC1)CCS2
- Papp at 24 h [1]: 0.6 ×10⁻⁶ cm/s
- EC50 (Ryanodine receptor 2 [2]): 2.7 µM
- Activity (Ryanodine receptor 2 [7]): Active

Structure (SMILES): COc1ccc(OCCCN(CCCCC2(O)CC2)CCCCC2(O)CC2)cc1
- Papp at 24 h [1]: 4 ×10⁻⁶ cm/s
- EC50 (Ryanodine receptor 2 [2]): > 23 µM
- EC50 [4]: 1.5 µM
- Activity ([5]; filed as activator): Active
- Activity [6]: Active
- Activity [8]: 150%
- Activity [9]: 150%
- Activity [10]: inactive
- Activity [11]: inactive

Structure (SMILES): COc1ccc2c(c1)CN(CCCCC1(O)CC1)CCS2
- Papp at 24 h [1]: 3.6 ×10⁻⁶ cm/s
- Activity (Ryanodine receptor 2 [2]): inactive
- EC50 [4]: > 1000 µM
- Activity ([5]; filed as activator): Active
- Activity [6]: Active

Structure (SMILES): COc1ccc2c(c1)CN(CCCCNCCCCC1(O)CC1)CCS2
- Papp at 24 h [1]: 0.8 ×10⁻⁶ cm/s
- EC50 (Ryanodine receptor 2 [2]): 8.17 µM
- Activity [5]: inactive
- Activity [6]: Active

Structure (SMILES): O=C1CN(/N=C/c2ccc(-c3ccc([N+](=O)[O-])cc3)o2)C(=O)N1
- Activity (Ryanodine receptor 2 [7]): Active

Structure (SMILES): COc1ccc(SCCCNCCCCC2(O)CC2)cc1
- Papp at 24 h [1]: 6.9 ×10⁻⁶ cm/s
- Activity ([5]; filed as activator): Active
- Activity [6]: Active

Structure (SMILES): COc1ccc(SCCCN(CCCCC2(O)CC2)CCCCC2(O)CC2)cc1
- Papp at 24 h [1]: 3.6 ×10⁻⁶ cm/s
- Activity ([5]; filed as activator): Active
- Activity [6]: Active

Structure (SMILES): COc1ccc2c(c1)CN(C(=O)C(=O)O)CCS2 [ALADORIAN]
- Papp at 24 h [1]: 1 ×10⁻⁶ cm/s
- Activity (Ryanodine receptor 2 [2]; filed as modulator): Active
- Activity [3]: inactive
- Activity [12]: inactive
- Activity [13]: inactive
- Activity (Ryanodine receptor 2 [7]): Active

Structure (SMILES): COc1ccc2c(c1)CN(C)CCS2
- Papp at 24 h [1]: 1.2 ×10⁻⁶ cm/s
- Activity (Ryanodine receptor 2 [2]; filed as modulator): Active
- Activity [3]: inactive
- Activity [12]: inactive
- Activity [13]: inactive
- Activity (Ryanodine receptor 2 [14]): Active
